{"source": "ChEMBL document CHEMBL2321872", "about": "“Synthesis and antimycobacterial activity of 2,1'-dihydropyridomycins” (ACS Med Chem Lett, 2013)", "target": "Enoyl-[acyl-carrier-protein] reductase [NADH] (Mycobacterium tuberculosis, UniProt P9WGR1, S94A)"}
{"smiles": "CC(C)[C@H]1OC(=O)[C@H](C)[C@H](O)[C@H](Cc2cccnc2)NC(=O)[C@@H](NC(=O)c2ncccc2O)[C@@H](C)OC1=O", "values": [{"measurement": "Ki", "value": 71, "unit": "µM"}]}
